Here are results for 1 molecule from US9689040B2, “Selective inhibitors of tumor-initiating cells” (Children's Medical Center Corporation, priority 2011, dated 2017).

Test [1] concerns epithelial TNBC / basal-like cells (MB-468, HCC-1143, HCC-1937, 4T1-E). In words: cells. The settings on record: 24 h, read-out: decrease of cell viability.
Test [2] has as its system BPE, HMLER and BPLER cells. In words: Cell cycle distribution (propidium iodide DNA staining).
In test [3] the test system is unselected breast cancer patients. The settings on record: eight phase I/II studies, chemotherapy combination regimens with bortezomib; cited from earlier work.
The subject of the next test is MB-468 tumors. In words: MB-468 tumor-bearing mice. It is filed as in vivo, mouse. The settings on record: intratumoral or intravenous regimen, 45 days.
In the next test the test system is Noxa, PARP1. In words: Immunoblot of Noxa induction and PARP cleavage in breast cell lines. It is filed as cell-based, human. The settings on record: for Noxa protein induction: 12.5 nM, 24 hours. The procedure: Immunoblot was performed as described^41. Primary antibodies were as follows: cleaved Caspase 3 (Cell Signaling, rabbit polyclonal, 1:1000), PARP1 (Santa Cruz, rabbit polyclonal, 1:500), MCL1 (Cell Signaling, Rabbit polyclonal, 1:1000), Bim (Santa Cruz, rabbit polyclonal, 1:500), Bik (Cell Signaling, rabbit polyclonal, 1:1000), Puma (Cell Signaling, rabbit polyclonal, 1:1000), Noxa (Calbiochem, mouse monoclonal, 1:500), Bid (Santa Cruz, rabbit polyclonal, 1:500), Bad (Santa Cruz, rabbit polyclonal, 1:500). Antibodies were diluted in 5% milk in TBS-T and incubated O.N. at 4° C. Secondary mouse and rabbit HRP-conjugated antibodies were from Amersham. Protein signal was detected using the ECL Plus kit (Amersham). For flow cytometry, cells were stained as previously described^33, using the following fluorescent-conjugated antibodies: CD44 (BD Biosciences), CD24 (BD Biosciences), CD326 (ESA, Biolegend), Annexin V (Invitrogen). For immunofluorescence microscopy, cells were fixed in 2% PFA for 10 min, permeabilized with 1% Triton X in PBS for 5 min, and incubated with primary antibodies in 0.5% Triton X, 1% FBS in PBS for 30 min at RT. Antibodies were: CK18 (Santa Cruz, mouse monoclonal, 1:100) and CK14 (Millipore, mouse monoclonal, 1:100). After washing the cells were stained sequentially with AlexaFluor647-conjugated secondary antibody (Invitrogen, 1:200) and DAPI (Sigma, 1:5000). For immunohistochemistry, BPLER tumor sections were prepared from paraffin-embedded tissues, deparaffinized and treated with 10% citrate buffer for 15 min.
A general note: In western blotting, separated proteins are transferred to a membrane and probed.

The next test has as its system BPLER tumors. In words: BPLER tumor xenografts in Nu/J mice (tumor volume, tumor weight). The format is in vivo, mouse. How it is done: We first assessed the effect of bortezomib on pre-established subcutaneous BPLER xenografts in nude mice. […] To reduce experimental variability, we selected mice bearing tumors of homogenous size (˜[…] in diameter after 3 weeks from injection), which were randomized into two groups. Each group received 6 doses of either vehicle (DMSO) or bortezomib at 0.5 mg/kg i.p. q3d over a 16-day period, respectively. At the end of the treatment period, mice were sacrificed and tumor weight was assessed.
Bortezomib is already in the clinic for treatment of multiple myeloma and other lymphomas. To start investigating potential clinical efficacy in TNBC, BPLER tumor-bearing mice were given 1 dose (0.8 mg/kg) of bortezomib intratumorally (i.t.), intraperitoneally (i.p) or intravenously (i.v.) and proteasome activity in the tumor was assessed after 18 hours (FIG. 6A). […] To assess therapeutic efficacy, we administered bortezomib every 3 days (0.8 mg/kg i.t.) or weekly (1.6 mg/kg i.v.) after BPLER tumors, implanted in the flank of Nu/J mice, became palpable. BPLER tumor outgrowth was assessed by tumor volume during the treatment period and by tumor weight at the time of sacrifice.
All animal procedures were performed with IACUC approval. Exponentially growing cells were trypsinized with TRYPLE EXPRESS (Invitrogen), resuspended in a 1:1 WIT-Matrigel solution at the indicated numbers, and injected subcutaneously in the flank of 4-week old female Nu/J mice (Stock #002019, Jackson Laboratories). […] Mice were sacrificed 16 days after beginning treatment and tumor weight was assessed.

The test system of test [4] is mesenchymal MDA-MB-231 and MDA-MB-436 cells. The experiment in a line: cells. Particulars: Homo sapiens, 24 h, read-out: decrease of cell viability.
The test system of test [5] is mouse TNBC primary tumor fragments. In words: Primary TNBC tumor fragments from TP53 heterozygous Balb/c mice implanted in mammary fat-pad (V22 tumors). The format is in vivo. Particulars: 1.6 mg/kg weekly i.v. infusion. The procedure: (6A) Proteasome activity in protein lysates from BPLER tumors 18 hours after intratumoral (i.t.), intraperithoneal (i.p) or intravenous (i.v.) treatment with bortezomib at the indicated dose, as determined by ProteasomeGlo assay. Proteasome activity in BPLER treated with bortezomib in vitro is shown as control. (6B-6E) Mean tumor volume (6B, 6D) in BPLER tumor-bearing mice after treatment with bortezomib or DMSO at the indicated dose, schedule and route of administration. Median tumor weight was measured at time of sacrifice (6C, 6E). […] (6F) Immunoblot analysis of protein lysates from BPLER tumors 18 hours after 1 intravenous dose of bortezomib at 1.6 mg/kg bortezomib or DMSO, showing efficient Noxa induction and caspase-3 and PARP1 cleavage after bortezomib treatment. (6G) Mean tumor volume in MB-468 tumor-bearing mice after intravenous treatment with 1.6 mg/kg bortezomib weekly. (6H) Schematic diagram illustrating generation of mouse TNBC primary tumor fragments for bortezomib-based therapy studies. […] 4T1-E tumors are shown as control. (6I, 6J) Mean V22 tumor volume (6I) after weekly intravenous infusion of bortezomib (1.6 mg/kg) or DMSO. Treatment was started 2 days after implantation of primary tumor fragments. […] The top and the bottom of each box represent the 75th and 25th percentile of tumor weight, respectively. […]

Test [6] concerns mesenchymal MDA-MB-231 and MDA-MB-436 cells. Particulars: MB-231, MB-436.

Molecules are shown by their SMILES.

Experimental for MB-468 tumors: Mean tumor volume in MB-468 tumor-bearing mice upon intratumoral infusion of bortezomib (0.8 mg/kg) or DMSO q3d.
Treatment was started once mice developed palpable tumors.

As to `CC(C)C[C@H](NC(=O)[C@H](Cc1ccccc1)NC(=O)c1cnccn1)B(O)O` [bortezomib], the cytotoxicity at 0.0125 µM is 50 to 65% in [1] and 20 to 25% in test [4]. Besides, the cell cycle distribution result is given as “underwent G2/M arrest” in test [2] (BPE cells, 24 hours); “did not undergo cell cycle arrest” in test [2] (BPLER cells, low dose); “underwent G2/M arrest” in test [2] (HMLER cells, low dose). For the same molecule, the partial response rates in [3] is listed as 10-20%. For the same molecule, in the test with MB-468 tumors, the “tumors smaller compared to control mice” value is on record as “at least 6 fold”. Besides, the Noxa protein induction entry is “only weakly” in the test with Noxa, PARP1 (BPE, MCF7 and T47D); “strongly induced Noxa protein” with Noxa, PARP1 (all TNBC cell lines tested). In addition, the Noxa protein level result in the test with Noxa, PARP1 (BPLER cells) is “highly increased”. The PARP cleavage result in the test with Noxa, PARP1 (HCC1143 and HCC1937 cells) is listed as “induced PARP cleavage”; in the test on Noxa, PARP1 (MCF7 or MDA-MB-436 cells), “not in MCF7 or MDA-MB-436 cells”. Further, the “reduction of median tumor weight” value with BPLER tumors (0.5 mg/kg i.p. q3d, 6 doses, after 16 days) was 54%. Besides, the “tumors smaller than in control mice (tumor volume, average)” value was 85% in the test with BPLER tumors (0.8 mg/kg i.t. every 3 days) and 59% in the test on BPLER tumors (1.6 mg/kg i.v. weekly). In addition, the “tumors weighed less than in control mice (average)” value in the test with BPLER tumors (0.8 mg/kg i.t. every 3 days) is listed as 91%; in the test on BPLER tumors (1.6 mg/kg i.v. weekly) it was 63%. In addition, in the test with BPLER tumors (immunohistochemistry and western blot), the “Noxa induction and caspase 3 cleavage in tumors” value was “induced Noxa induction and caspase 3 cleavage in vivo”. For the same molecule, in [5], the “secondary tumors smaller compared to control mice” value is listed as approximately 90%. The “secondary tumors weighed less compared to control mice” value in test [5] is approximately 80%. In test [6], the “sensitivity of mesenchymal breast cancer cell lines” value is on record as “resistant”.
